Data reported in patent US20200330484A1, “STEROIDAL COMPOUNDS FOR TREATMENT OF MENTAL AND NEUROLOGICAL DISORDERS” (USTAV ORGANICKE CHEMIE A BIOCHEMIE AV CR, V.V.I., priority 2017, published 2020).
Like-named read-outs stand apart in the source and are kept apart here.

Tests used:
hGluN1/hGluN2B(V618G) [1] = molecular target: T1, hGluN1/hGluN2B(V618G) (Homo sapiens, UniProt Q05586+Q13224, V618G); conditions: read-out: Glutamate EC50; calculated from ratio of responses to two glutamate concentrations, h fixed at 1.4
hGluN1/hGluN2B(V558I) [2] = molecular target: T2, hGluN1/hGluN2B(V558I) (Homo sapiens, UniProt Q05586+Q13224, V558I); conditions: read-out: Glutamate EC50; calculated from ratio of responses to two glutamate concentrations, h fixed at 1.4
hGluN1/hGluN2B(G820A) [3] = molecular target: T3, hGluN1/hGluN2B(G820A) (Homo sapiens, UniProt Q05586+Q13224, G820A); conditions: read-out: Glutamate EC50; calculated from ratio of responses to two glutamate concentrations, h fixed at 1.4
hGluN1/hGluN2B(L825V) [4] = molecular target: T4, hGluN1/hGluN2B(L825V) (Homo sapiens, UniProt Q05586+Q13224, L825V); conditions: read-out: Glutamate EC50; calculated from ratio of responses to two glutamate concentrations, h fixed at 1.4
hGluN1/hGluN2B(N615I) = hGluN1/hGluN2B(N615I) (Homo sapiens, UniProt Q05586+Q13224, N615I); test: cell-based; conditions: read-out: Glycine EC50
hGluN1/hGluN2B(L825V) [5] = molecular target: T4, hGluN1/hGluN2B(L825V); test: cell-based; conditions: read-out: Glycine EC50
hGluN1/hGluN2B(V558I) [6] = molecular target: T2, hGluN1/hGluN2B(V558I); test: cell-based; conditions: read-out: Glycine EC50
hGluN1/hGluN2B(G820A) [7] = molecular target: T3, hGluN1/hGluN2B(G820A); test: cell-based; conditions: read-out: Glycine EC50
hGluN1/hGluN2B(V618G) [8] = molecular target: T1, hGluN1/hGluN2B(V618G); test: cell-based; conditions: read-out: Glycine EC50
hGluN1/hGluN2B(E657G) = hGluN1/hGluN2B(E657G) (Homo sapiens, UniProt Q05586+Q13224, E657G); test: cell-based; conditions: read-out: Glycine EC50
[9] = molecular target: T5, hGluN1/hGluN2B (WT) receptors (Homo sapiens, UniProt Q05586+Q13224); test: Whole-cell patch clamp, steroid potentiation of responses tonically activated by low concentration of glutamate; assay type: cell-based; conditions: PA-But 15 μmol · l^−1; HEK293T; mean ± SEM
T5 construct: expressed in transfected cells; host or cells: HEK293T
Procedure: (§1) Human embryonic kidney-293T (HEK293T) cells were used for transfection of human genes encoding for NMDA receptor subunits: hGluN1 (GenBank, accession number NP_015566) and hGluN2B (GenBank, accession number NP_000825). Equal amounts ([…]) of DNA encoding for GluN1 and GluN2B were mixed with 0.9 μl Matra-A Reagent (IBA, Gottingen, Germany) and added to confluent HEK293T cells. After trypsinization, the cells were resuspended in Opti-MEM I (ThermoFisher Scientific, Paisley, UK; Cat. #31985062) containing 1% fetal bovine serum supplemented with 15 mmol·l^−1 MgCl2, 1 mmol·l^−1 D,L-2-amino-5-phosphonopentanoic acid (D,L-AP5), and 1 μmol.l^−1 ketamine.
(§2) Mutations in the GluN2B subunit were made using the QuickChange Site-Directed Mutagenesis Kit (Agilent Technologies, Santa Clara, Calif., USA) according to the manufacturer's instructions. Mutated cDNA was transformed into ultra-competent XL1Gold E. coli cells, multiplied, positive clones were selected, and the isolated plasmide DNA was verified by sequencing (SEQme s.r.o., Dobris, Czechia, or GATC Biotech AG, Constance, Germany) All mutations were verified by DNA sequencing. Transfected HEK293T cells were identified by GFP epifluorescence. The amino acids are numbered on the basis of the full-length protein, including the signal peptide.
(§3) Experiments were performed 12-36 h after the end of transfection on cultured HEK293T cells transfected with vectors containing hGluN1/hGluN2B/GFP. Whole-cell voltage clamp current recordings were performed at room temperature (21-25° C.) at a holding potential of −60 mV using a patch-clamp amplifier (Axopatch 200B; Molecular Devices, Sunnyvale, Calif., USA) after a capacitance and series resistance (<10 MΩ) compensation of 80-90%. Data were collected (low-pass filtered at 2 kHz and sampled at 10 kHz) and analyzed using pClamp 10 (Molecular Devices). Patch pipettes (3-5 MΩ) were filled with an intracellular solution (ICS) containing (in mmol·l^−1): 120 gluconic acid, 15 CsCl, 10 BAPTA, 10 HEPES, 3 MgCl2, 1 CaCl2, and 2 ATP-Mg salt (pH-adjusted to 7.2 with CsOH) and extracellular solution (ECS) contained the following (in mmol·l^−1): 160 NaCl, 2.5 KCl, 10 HEPES, 10 glucose, 0.2 EDTA, and 0.7 CaCl2) (pH-adjusted to 7.3 with NaOH). […] The tested steroid solutions were made from freshly prepared 20 mmol·l^−1 20-oxopregn-5en-3β-yl sulfate (PE-S; pregnenolone sulfate), 5 mmol·l^−1 androst-5-en-3β-yl hemisuccinate (AND-hSuc), or 10 mmol·l^−1 20-oxo-5β-pregnan-3-yliden-4′-but-2-enoic acid stock in dimethyl sulfoxide (DMSO). The final dilution to ECS was made at 50° C. and followed by 1 min sonication (SONOREX DIGITEC DT 100/H, BADELIN electronic, Berlin, Germany) The same concentration of DMSO was added to all extracellular solutions. Control and test solution applications were made with a microprocessor-controlled multibarrel fast-perfusion system. The solution exchange rate was ˜15 ms. The following mutations of the gene encoding for hGluN2B subunit (GRIN2B) were tested: P553L; V558I; W607C; N615I; V618G; S628F; E657G; G820E; G820A; M824R; L825V. These mutations are located in the preM1, M2, M3, and M4 transmembrane domains of the receptor (FIG. 1).

[10] = system: C57BL/6 mice (control) and BALB/c mice; test: Three-chamber social behavior test; assay type: in vivo; conditions: intraperitoneal, 1 and 10 mg/kg, dissolved in cyclodextrine
From the text: In in vivo experiments, the effect of the steroid 20-oxo-5β-pregnan-3-ylidene-4′-but-2-enoic acid on C57BL/6 mice (control) and BALB/c mice was compared. BALB/c mice show a higher rate of anxiety behavior and lower socialization, which is considered to be a certain equivalent of autistic manifestations in humans.

hGluN1/hGluN2B(L825V) [11] = molecular target: T4, hGluN1/hGluN2B(L825V); test: Whole-cell patch clamp, steroid potentiation of responses tonically activated by low concentration of glutamate; assay type: cell-based; parameters: expressed in transfected cells; host or cells: HEK293T; conditions: PA-But 15 μmol · l^−1; HEK293T; mean ± SEM
Procedure: as §1, §2, §3

hGluN1/hGluN2B(V618G) [12] = molecular target: T1, hGluN1/hGluN2B(V618G); test: as above; assay type: cell-based; parameters: expressed in transfected cells; host or cells: HEK293T; conditions: PA-But 15 μmol · l^−1; HEK293T; mean ± SEM
Procedure: as §1, §2, §3

hGluN1/hGluN2B(G820A) [13] = molecular target: T3, hGluN1/hGluN2B(G820A); test: as above; assay type: cell-based; parameters: The amino acids are numbered on the basis of the full-length protein, including the signal peptide; expressed in transfected cells; host or cells: HEK293T; conditions: PA-But 15 μmol · l^−1; HEK293T; mean ± SEM
Procedure: as §1, §2, §3

hGluN1/hGluN2B(V558I) [14] = molecular target: T2, hGluN1/hGluN2B(V558I); test: as above; assay type: cell-based; parameters: The amino acids are numbered on the basis of the full-length protein, including the signal peptide; expressed in transfected cells; host or cells: HEK293T; conditions: PA-But 15 μmol · l^−1; HEK293T; mean ± SEM
Procedure: as §1, §2, §3

Compound: N[C@@H](CCC(=O)O)C(=O)O [Glutamate, glutamate]
- potency estimated from few doses (hGluN1/hGluN2B(V618G) [1]): 1.8 ± 0.2 µM
- potency estimated from few doses (hGluN1/hGluN2B(V558I) [2]): 1.6 ± 0.3 µM
- potency estimated from few doses (hGluN1/hGluN2B(G820A) [3]): 1.5 ± 0.3 µM
- potency estimated from few doses (hGluN1/hGluN2B(L825V) [4]): 1.6 ± 0.2 µM

Compound: NCC(=O)O [Glycine, glycine]
- potency estimated from few doses (hGluN1/hGluN2B(N615I)): 0.31 ± 0.02 µM
- potency estimated from few doses (hGluN1/hGluN2B(L825V) [5]): 0.16 ± 0.01 µM
- potency estimated from few doses (hGluN1/hGluN2B(V558I) [6]): 0.22 ± 0.05 µM
- potency estimated from few doses (hGluN1/hGluN2B(G820A) [7]): 0.2 ± 0.09 µM
- potency estimated from few doses (hGluN1/hGluN2B(V618G) [8]): 0.27 ± 0.02 µM
- potency estimated from few doses (hGluN1/hGluN2B(E657G)): 0.39 ± 0.08 µM

Compound: CC(=O)[C@H]1CC[C@H]2[C@@H]3CC[C@@H]4CC(=CC=CC(=O)O)CC[C@]4(C)[C@H]3CC[C@]12C [PA-But, 20-oxo-5β-pregnan-3-ylidene-4′-but-2-enoic acid]
- Potentiating effect (%) [9]: 212 ± 19 (22) %
- Social behavior (interest in the second mouse cage vs an empty cage) [10]: greater interest in the second mouse cage than in an empty cage
- Potentiating effect (%) (hGluN1/hGluN2B(L825V) [11]): 577 ± 78 (10)^††; %
- Potentiating effect (%) (hGluN1/hGluN2B(V618G) [12]): 67 ± 12 (3)^††; %
- Potentiating effect (%) (hGluN1/hGluN2B(G820A) [13]): 7 ± 3 (5)^††; %
- Potentiating effect (%) (hGluN1/hGluN2B(V558I) [14]): −9 ± 5 (4)^††; %
